Results as given in US20210322508A1, “PEPTIDES AND COMPOSITIONS FOR TARGETED TREATMENT AND IMAGING” (SIGNABLOK, INC., priority 2018, published 2021).
Residues, ends and D or L forms follow the SMILES beside them.

What was measured:
[1] = tested on: J774 macrophages; assay: in vitro macrophage uptake (endocytosis) of rho B-labeled peptides and lipopeptide complexes; assay type: cell-based, murine; settings: for mechanism of macrophage endocytosis (scavenger receptors): J774, 4 h or 22 h, G-HV21 and G-KV21 in the presence of HDL; for in vitro macrophage uptake, presence vs. absence of HDL: rho B-labeled peptides
Description: In Vitro Macrophage Uptake of GF9HDL and GA/E31HDL A quantitative in vitro macrophage assay of endo-cytosis of rho B-labeled HDL-mimicking lipopeptide complexes by J774 macrophage was performed as described. (18-20) Briefly, BALB/c murine macrophage J774A.1 cells (ATCC) were cultured at 37° C. with 5% CO2 in Dulbecco's modified Eagle's medium (Cellgro Mediatech, Manassas, Va.) with 2 mM glutamine, 100 U/mL penicillin, 0.1 mg/mL streptomycin, and 10% heat-inactivated fetal bovine serum (Cellgro Mediatech) and grown to approximately 90% confluency in 12-well tissue culture plates (Corning Costar, Corning, N.Y.).
Cells were washed twice using phosphate-buffered saline and lysed using Passive Lysis Buffer (Promega, Madison, Wis.). Rho B fluorescence was measured in the lysates with 544-nm excitation and 590-nm emission filters, using a Fluoroscan Ascent CF fluorescence microplate reader (Thermo Labsystems, Vantaa, Finland). Protein concentrations in the lysates were measured using Bradford reagent (Sigma-Aldrich) and an MRX microplate reader (Dynex Technologies, Chantilly, Va.) according to the manufacturer's recommended protocol.

[2] = tested on: mice with oxygen-induced retinopathy (OIR); assay: oxygen-induced retinopathy (OIR) in mice; assay type: in vivo
Excerpt: The membrane was probed for TREM-1, reprobed for CSF1 and then for β-actin.

[3] = molecular target: T1, TREM-1 (Mus musculus, UniProt Q9JKE2); assay: Immunofluorescence colocalization with TREM-1 in the cell membrane; assay type: cell-based; settings: J774A.1; 6 h; Dylight 488-labeled, pre-incubated with HDL
T1 construct: endogenous in cells; host or cells: BALB/c murine macrophage cell line J774A.1 (ATCC)
T1 sequence (O54885 22-114 partner): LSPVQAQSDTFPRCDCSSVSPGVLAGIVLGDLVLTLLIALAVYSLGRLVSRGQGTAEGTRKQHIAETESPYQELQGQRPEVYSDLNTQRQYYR
T1 sequence (Q9JKE2 21-230): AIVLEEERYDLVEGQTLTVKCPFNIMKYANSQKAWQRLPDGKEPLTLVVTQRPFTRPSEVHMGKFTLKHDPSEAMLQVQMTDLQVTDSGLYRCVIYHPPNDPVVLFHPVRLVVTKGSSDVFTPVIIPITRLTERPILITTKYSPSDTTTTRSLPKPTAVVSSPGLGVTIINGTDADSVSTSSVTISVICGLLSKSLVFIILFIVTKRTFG
Description: BALB/c murine macrophage J774A.1 cells were obtained from ATCC (Manassas, Va.) and cultured according to manufacturer's instructions at 37° C. in 6-well tissue culture plates containing glass coverslips until reaching about 50% confluency. Then, cells were incubated for 6 h at 37° C. either with rho B-labeled GF9-SLP that contained Dylight labeled GF9 or TREM-1/TRIOPEP-sSLP that contained Dylight 488-labeled GE31. In colocalization experiments, TREM-1 staining was performed using an Alexa 647-labeled rat anti-mouse TREM-1 antibody (Bio-Rad, Hercules, Calif.) as described in Shen and Sigalov. J Cell Mol Med 2017, 21:2524-2534. Coverslips were mounted using Prolong Gold anti-fade DAPI (4′,6-diamidino-2-phenylindole) mounting medium and photographed using an Olympus BX60 fluorescence microscope. Confocal imaging was performed using a Leica TCS SP5 II laser scanning confocal microscope as described in Shen and Sigalov. J Cell Mol Med 2017, 21:2524-2534.
BALB/c murine macrophage J774A.1 cells were grown at 37° C. in six-well tissue culture plates containing glass coverslips. […] ProLong Gold Antifade DAPI (4′,6′-diamidino-2-phenylindole) mounting medium was used to mount coverslips, and the slides were photographed using an Olympus BX60 fluorescence microscope. […]

[4] = molecular target: T1, TREM-1; assay: colocalization of labeled peptide with TREM-1 in the cell membrane (images); assay type: cell-based; settings: GE31 delivered to macrophages by SLP, G-KV21 pre-incubated with HDL, J774 cells
[5] = tested on: human pancreatic cancer PANC-1 xenograft; assay: PANC-1 xenograft mouse model, standalone and with GEM+ABX chemotherapy; assay type: in vivo
Description: Mice were implanted subcutaneously into the right flank with PANC-1 cells in equal parts of serum-free growth medium and Matrigel. Mice were monitored daily and tumor measurements were taken along the length and width using Vernier calipers twice weekly until sacrifice. Tumor volumes were calculated using a modified ellipsoidal formula: (Length×Width^2)/2. […] Body weight were measured. Mean tumor volumes were calculated. […] Survival was evaluated using Kaplan-Meier survival curves.

[6] = tested on: healthy C57BL/6 mice; assay: Mouse tolerability studies; assay type: in vivo; settings: free form, i.p., healthy mice
Description: Naïve, female C57BL/6 mice at 8 to 10 weeks of age (18 to 21 g) from the Jackson Laboratory were used. […] Clinical observations and body weights were made twice daily.
Naïve, female C57BL/6 mice at 8 to 10 weeks of age (18 to 21 g) from the Jackson Laboratory were used. Animals were randomly grouped (5 mice per group) and i.p. injected with 400 mg/kg G-HV21, G-KV21 or G-TE21. Clinical observations and body weights were made twice daily.

[7] = comparison of therapies (cancer indications); settings: shown for cancer indications

Row | SMILES | mechanism of macrophage endocytosis (scavenger receptors) [1] | in vitro macrophage uptake, presence vs. absence of HDL [1] | pathological retinal neovascularization (RNV) ([2]; 25 mg/kg GF9, 2.5 mg/kg GF9-sSLP, 4 mg/kg GA/E31-sSLP where stated) | retinal tissue expression of TREM-1 and CSF-1 (M-CSF) ([2]; P17, Western blot) | self-insertion into the cell membrane and colocalization with TREM-1 [3] | colocalization with TREM-1 in the cell membrane [4] | survival, combined with GEM+ABX chemotherapy [5] | tumor growth, combined with GEM+ABX chemotherapy ([5]; GEM+ABX days 1, 4, 8, 11, 15) | dose at which non-toxic and well tolerated [6] | Acute toxicity [7]
1 | CC(C)C[C@H](NC(=O)[C@H](Cc1ccccc1)NC(=O)CN)C(=O)N[C@@H](CO)C(=O)N[C@@H](CCCCN)C(=O)N[C@@H](CO)C(=O)N[C@@H](CC(C)C)C(=O)N[C@H](C(=O)N[C@@H](Cc1ccccc1)C(=O)N[C@@H](Cc1c[nH]c2ccccc12)C(=O)N[C@@H](CCC(N)=O)C(=O)N[C@@H](CCC(=O)O)C(=O)N[C@@H](CCC(=O)O)C(=O)N[C@@H](CC[S+](C)[O-])C(=O)N[C@@H](CCC(=O)O)C(=O)N[C@@H](CC(C)C)C(=O)N[C@@H](Cc1ccc(O)cc1)C(=O)N[C@@H](CCCNC(=N)N)C(=O)N[C@@H](CCC(N)=O)C(=O)N[C@@H](CCCCN)C(=O)N[C@H](C(=O)O)C(C)C)C(C)C (stereo partly drawn) [G-KV21] (HELM PEPTIDE1{G.F.L.S.K.S.L.V.F.W.Q.E.E.[CS(=O)CC[C@H](N[*:1])C(=O)[*:2]].E.L.Y.R.Q.K.V}$$$$V2.0) | SR-mediated in a time-dependent manner and is largely driven by SR-A | significantly increases | significantly suppresses pathological RNV | inhibits tissue expression of TREM-1 and M-CSF | self-inserts into the cell membrane and colocalizes with TREM-1 | colocalization | significantly improves survival | sensitizes the tumor to chemotherapy |  | 
2 | CC(C)C[C@H](NC(=O)[C@H](Cc1ccccc1)NC(=O)CN)C(=O)N[C@@H](CO)C(=O)N[C@@H](CCCCN)C(=O)N[C@@H](CO)C(=O)N[C@@H](CC(C)C)C(=O)N[C@H](C(=O)N[C@@H](Cc1ccccc1)C(=O)O)C(C)C [GF9] (H-GFLSKSLVF-OH) |  |  |  |  |  |  |  |  | at least 300 mg/kg | LOW
3 | CC(C)C[C@H](NC(=O)[C@H](Cc1ccccc1)NC(=O)CN)C(=O)N[C@@H](CO)C(=O)N[C@@H](CCCCN)C(=O)N[C@@H](CO)C(=O)N[C@@H](CC(C)C)C(=O)N[C@H](C(=O)N[C@@H](Cc1ccccc1)C(=O)NCC(=O)N[C@@H](CCC(=O)O)C(=O)N[C@@H](CCC(=O)O)C(=O)N[C@@H](CC[S+](C)[O-])C(=O)N[C@@H](CCCNC(=N)N)C(=O)N[C@@H](CC(=O)O)C(=O)N[C@@H](CCCNC(=N)N)C(=O)N[C@@H](C)C(=O)N[C@@H](CCCNC(=N)N)C(=O)N[C@@H](C)C(=O)N[C@@H](Cc1c[nH]cn1)C(=O)N[C@H](C(=O)O)C(C)C)C(C)C (stereo partly drawn) [G-HV21] (HELM PEPTIDE1{G.F.L.S.K.S.L.V.F.G.E.E.[CS(=O)CC[C@H](N[*:1])C(=O)[*:2]].R.D.R.A.R.A.H.V}$$$$V2.0) | SR-mediated in a time-dependent manner and is largely driven by SR-A | significantly increases |  |  |  |  |  |  |  | 
